According to ChEMBL document CHEMBL1139497, “The effects of conformational constraints and steric bulk in the amino acid moiety of philanthotoxins on AMPAR antagonism” (J Med Chem, 2005):

Columns and labels:
[1] = target: Glutamate receptor ionotropic, AMPA (Rattus norvegicus, UniProt P19490+P19491+P19492+P19493); assay: Inhibition of kainate-induced currents of rat ionotropic glutamate receptor AMPA expressed in Xenopus laevis oocytes; format: cell-based, Oocyte
[2] = target: Glutamate receptor ionotropic, AMPA (Rattus norvegicus, UniProt P19491+P19492+P19493+P19490); assay: Inhibition of kainate-induced currents of rat ionotropic glutamate receptor AMPA expressed in Xenopus laevis oocytes; not active; format: cell-based; details: oocyte
Glutamate receptor ionotropic, AMPA (Rattus norvegicus, UniProt P19491+P19492+P19493+P19490), sequence (P19491 whole entry): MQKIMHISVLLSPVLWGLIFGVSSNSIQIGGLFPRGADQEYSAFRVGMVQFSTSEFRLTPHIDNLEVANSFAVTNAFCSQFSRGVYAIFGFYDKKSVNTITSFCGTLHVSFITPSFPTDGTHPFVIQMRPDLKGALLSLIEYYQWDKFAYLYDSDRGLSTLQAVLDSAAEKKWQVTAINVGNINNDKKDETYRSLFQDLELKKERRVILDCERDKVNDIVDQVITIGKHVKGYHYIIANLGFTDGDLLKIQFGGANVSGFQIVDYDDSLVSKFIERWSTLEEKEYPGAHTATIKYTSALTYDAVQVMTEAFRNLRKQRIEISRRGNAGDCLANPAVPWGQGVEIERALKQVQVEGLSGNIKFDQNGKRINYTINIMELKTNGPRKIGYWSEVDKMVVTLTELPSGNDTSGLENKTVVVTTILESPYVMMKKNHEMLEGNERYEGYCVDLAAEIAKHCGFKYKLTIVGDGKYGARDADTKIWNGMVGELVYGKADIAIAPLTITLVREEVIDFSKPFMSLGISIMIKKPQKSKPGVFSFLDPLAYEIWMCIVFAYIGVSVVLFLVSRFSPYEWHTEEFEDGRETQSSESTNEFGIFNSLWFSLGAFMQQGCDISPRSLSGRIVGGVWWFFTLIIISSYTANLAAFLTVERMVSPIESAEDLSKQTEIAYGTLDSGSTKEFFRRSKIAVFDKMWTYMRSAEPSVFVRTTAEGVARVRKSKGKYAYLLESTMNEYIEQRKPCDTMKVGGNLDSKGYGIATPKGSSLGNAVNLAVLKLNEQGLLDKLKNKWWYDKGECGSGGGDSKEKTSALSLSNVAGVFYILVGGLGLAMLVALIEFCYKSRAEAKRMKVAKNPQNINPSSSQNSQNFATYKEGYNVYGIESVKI
Glutamate receptor ionotropic, AMPA (Rattus norvegicus, UniProt P19491+P19492+P19493+P19490), sequence (P19492 whole entry): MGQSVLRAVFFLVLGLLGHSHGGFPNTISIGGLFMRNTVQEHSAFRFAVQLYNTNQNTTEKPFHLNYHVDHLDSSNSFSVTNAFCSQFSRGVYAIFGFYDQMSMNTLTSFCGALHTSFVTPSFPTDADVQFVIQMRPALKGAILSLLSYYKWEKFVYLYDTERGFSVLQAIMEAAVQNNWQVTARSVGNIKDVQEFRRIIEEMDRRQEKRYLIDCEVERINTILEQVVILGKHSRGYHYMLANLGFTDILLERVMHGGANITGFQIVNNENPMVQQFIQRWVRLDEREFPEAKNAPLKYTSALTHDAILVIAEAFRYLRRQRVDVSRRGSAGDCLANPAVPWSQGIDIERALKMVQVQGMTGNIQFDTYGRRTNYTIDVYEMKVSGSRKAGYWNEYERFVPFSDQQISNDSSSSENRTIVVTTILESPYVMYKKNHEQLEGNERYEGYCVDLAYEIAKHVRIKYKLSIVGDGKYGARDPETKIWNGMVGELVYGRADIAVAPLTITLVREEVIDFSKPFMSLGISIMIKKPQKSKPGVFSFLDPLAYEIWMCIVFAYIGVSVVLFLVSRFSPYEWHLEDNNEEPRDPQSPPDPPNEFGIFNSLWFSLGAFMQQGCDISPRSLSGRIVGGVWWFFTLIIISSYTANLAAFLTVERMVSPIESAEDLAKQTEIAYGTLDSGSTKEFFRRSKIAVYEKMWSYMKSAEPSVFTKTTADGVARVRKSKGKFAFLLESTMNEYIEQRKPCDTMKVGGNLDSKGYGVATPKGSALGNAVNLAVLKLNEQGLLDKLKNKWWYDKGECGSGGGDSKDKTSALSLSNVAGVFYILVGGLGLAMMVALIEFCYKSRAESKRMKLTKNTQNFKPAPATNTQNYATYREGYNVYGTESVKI
Glutamate receptor ionotropic, AMPA (Rattus norvegicus, UniProt P19491+P19492+P19493+P19490), sequence (P19493 whole entry): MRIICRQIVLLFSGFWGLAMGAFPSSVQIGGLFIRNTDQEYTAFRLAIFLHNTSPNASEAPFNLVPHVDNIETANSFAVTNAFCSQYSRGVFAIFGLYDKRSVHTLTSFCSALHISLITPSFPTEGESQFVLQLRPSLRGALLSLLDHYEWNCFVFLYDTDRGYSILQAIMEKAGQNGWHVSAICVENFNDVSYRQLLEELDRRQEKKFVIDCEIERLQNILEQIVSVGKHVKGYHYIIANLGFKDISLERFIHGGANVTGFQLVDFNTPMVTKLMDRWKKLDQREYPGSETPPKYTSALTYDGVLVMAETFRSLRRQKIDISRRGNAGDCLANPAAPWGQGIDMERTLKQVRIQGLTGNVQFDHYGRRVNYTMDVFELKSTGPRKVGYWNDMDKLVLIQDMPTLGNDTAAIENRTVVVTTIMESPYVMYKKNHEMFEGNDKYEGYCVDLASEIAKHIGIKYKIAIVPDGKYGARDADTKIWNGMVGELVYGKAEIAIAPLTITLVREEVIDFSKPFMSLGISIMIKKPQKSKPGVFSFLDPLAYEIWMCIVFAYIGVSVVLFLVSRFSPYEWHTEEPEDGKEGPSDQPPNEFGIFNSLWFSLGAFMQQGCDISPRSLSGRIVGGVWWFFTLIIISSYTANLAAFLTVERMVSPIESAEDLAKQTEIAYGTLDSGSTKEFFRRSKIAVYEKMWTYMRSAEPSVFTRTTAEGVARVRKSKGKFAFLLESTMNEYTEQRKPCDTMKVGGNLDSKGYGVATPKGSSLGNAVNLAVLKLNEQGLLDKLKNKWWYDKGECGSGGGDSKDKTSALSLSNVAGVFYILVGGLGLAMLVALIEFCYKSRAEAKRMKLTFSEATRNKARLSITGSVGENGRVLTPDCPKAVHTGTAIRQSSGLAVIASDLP
Glutamate receptor ionotropic, AMPA (Rattus norvegicus, UniProt P19491+P19492+P19493+P19490), sequence (P19490 whole entry): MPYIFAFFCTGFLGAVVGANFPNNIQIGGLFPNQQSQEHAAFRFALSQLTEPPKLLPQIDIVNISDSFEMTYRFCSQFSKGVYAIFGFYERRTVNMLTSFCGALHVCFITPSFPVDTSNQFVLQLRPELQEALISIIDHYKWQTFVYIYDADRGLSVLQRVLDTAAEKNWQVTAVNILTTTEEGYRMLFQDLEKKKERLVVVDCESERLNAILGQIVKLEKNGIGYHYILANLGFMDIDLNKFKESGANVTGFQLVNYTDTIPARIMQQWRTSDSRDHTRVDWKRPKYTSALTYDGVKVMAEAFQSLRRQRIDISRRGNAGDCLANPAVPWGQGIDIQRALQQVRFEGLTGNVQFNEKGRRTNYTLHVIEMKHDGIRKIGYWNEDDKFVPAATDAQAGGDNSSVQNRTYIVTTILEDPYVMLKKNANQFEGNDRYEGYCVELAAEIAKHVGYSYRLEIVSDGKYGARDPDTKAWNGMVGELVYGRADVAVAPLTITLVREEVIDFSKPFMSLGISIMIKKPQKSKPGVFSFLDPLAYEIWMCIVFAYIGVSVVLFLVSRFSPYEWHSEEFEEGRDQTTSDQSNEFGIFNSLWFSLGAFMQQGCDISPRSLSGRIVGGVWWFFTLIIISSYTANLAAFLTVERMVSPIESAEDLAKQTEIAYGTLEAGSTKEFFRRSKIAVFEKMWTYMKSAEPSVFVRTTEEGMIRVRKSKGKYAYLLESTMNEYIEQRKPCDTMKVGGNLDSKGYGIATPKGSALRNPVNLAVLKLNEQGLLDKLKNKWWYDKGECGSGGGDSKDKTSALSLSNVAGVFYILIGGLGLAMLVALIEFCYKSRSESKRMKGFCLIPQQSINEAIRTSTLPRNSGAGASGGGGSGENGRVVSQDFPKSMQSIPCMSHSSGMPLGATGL

IC50 [2]	SMILES	IC50 [1] [nM]
	CCCC(=O)N[C@H](Cc1ccc(O)cc1)C(=O)NCCCNCCCCNCCCN	70
	CCCC(=O)N1Cc2ccccc2C[C@H]1C(=O)NCCCNCCCCNCCCN	370
	CCCC(=O)N1CCC(C(=O)NCCCNCCCCNCCCN)(c2ccccc2)CC1	1320
	CCCC(=O)N1c2ccccc2CC1C(=O)NCCCNCCCCNCCCN (stereo not drawn)	1390
	CCCC(=O)NC1(C(=O)NCCCNCCCCNCCCN)Cc2ccccc2C1	190
	CCCC(=O)N[C@@H](Cc1ccc2ccccc2c1)C(=O)NCCCNCCCCNCCCN	100
	CCCC(=O)NC1(C(=O)NCCCNCCCCNCCCN)CCc2ccccc2C1 (stereo not drawn)	250
	CCCC(=O)N1C[C@@H](Oc2ccc3ccccc3c2)C[C@H]1C(=O)NCCCNCCCCNCCCN	1040
Not Active	NCCCNCCCCNCCCNC(=O)c1cc2ccccc2[nH]1	
	CCCC(=O)N[C@@H](Cc1ccc(-c2ccccc2)cc1)C(=O)NCCCNCCCCNCCCN	80
	CCCC(=O)N[C@@H](Cc1c[nH]c2ccccc12)C(=O)NCCCNCCCCNCCCN	300
	CCCC(=O)N[C@@H](Cc1ccc(O)cc1)C(=O)NCCCNCCCCNCCCN [PHILANTHOTOXIN 343]	130
	CCCC(=O)N1Cc2ccc(O)cc2CC1C(=O)NCCCNCCCCNCCCN (stereo not drawn)	220
	CCCC(=O)N1C[C@H](OCc2ccccc2)C[C@H]1C(=O)NCCCNCCCCNCCCN	260
	CCCC(=O)N[C@@H](CCc1ccccc1)C(=O)NCCCNCCCCNCCCN	170
	CCCC(=O)N[C@H](C(=O)NCCCNCCCCNCCCN)c1ccccc1	320
	CCCC(=O)N[C@H](C(=O)NCCCNCCCCNCCCN)C(c1ccccc1)c1ccccc1	300
	CCCC(=O)N[C@@H](Cc1ccccc1)C(=O)NCCCNCCCCNCCCN	430
